# From patent US20110091473A1, “NOVEL ANTIBODY THERAPIES” (GENMAB A/S, priority 2007, published 2011)
# Test system: freshly isolated human lymphoma B cells
# Experiment: Rituximab-mediated CDC of freshly isolated human lymphoma B cells, MTT assay
# Type: cell-based
# Conditions: 10 mg/ml MβCD 30 minutes; 400 μg/ml rituximab, 10% serum
# Experimental: To extend these observations the influence of cholesterol depletion was studied in freshly isolated human lymphoma B cells. Tumor cells of three mantle cell lymphomas and a small B cell lymphoma were isolated out of bone marrow (10 ml) aspirated from the hip. The cell suspension was diluted twice with PBS (final volume 20 ml). 3 ml of Histopaque-1077 (Sigma Aldrich) was pipetted into two conical centrifuge tubes. 10 ml of diluted bone marrow was slowly layered on the top of Histopaque layer. Probes were centrifuged (400 g, 15 minutes, 25° C.) without brake. The white blood cell ring and plasma were isolated and washed twice with PBS. The leucocyte pellet was resuspeneded in 5 ml medium (RPMI or OptiMEM) and counted in a Bürker chamber using Turk dye. Cells were incubated with either diluent or MβCD (10 mg/ml) for 30 minutes. Treated cells were analyzed for their capacity to bind CD20 mAb as well as sensitivity for rituximab-mediated CDC induction.
# For the rituximab-mediated CDC human CD20-positive lymphoma B cells were incubated with either diluent or 10 mg/ml MβCD for 30 minutes. […] The cytotoxic effects were measured in a MTT assay.
substance,measurement,value
"rituximab: anti-CD20 antibody Rituxan/MabThera, type I",rituximab-mediated CDC,significantly decreased
